Source: patent US20050124618A1, “Methods of modulating angiogenesis and cancer cell proliferation” (priority 2003, published 2005)
pIC50: −log10 of the molar value. “Also recorded” adds a separate entry of the source.

Assays:
[1] = test system: U251 human glioma cells; assay: U251 cell proliferation assay (cell counting); assay type: cell-based
Experimental: Culture Conditions: Cells were routinely maintained in DMEM (Invitrogen) supplemented with 10% heat-inactivated fetal bovine serum (FBS), penicillin (10 IU/ml), streptomycin (10 μg/ml) and 10% non-essential amino acids (all purchased from Invitrogen). Cells were maintained at 37° C. in a humidified incubator containing 5% CO2. They were grown in medium containing 10% FBS, which was then replaced with serum-free medium where U251 cells grow exponentially. Treatments were initiated one day after serum removal.
(§1) Cell Proliferation Assays: Proliferation studies were performed with cultures plated at a density that ensured exponential growth for at least 5 days. Growth medium was generally replaced by serum-free medium 24 hr after plating. Cells were treated with various concentrations of a given compounds for 24 or 48 hr as described in the Methods. […] Organic solvent never exceeded 0.1% of total culture volume. Cells were harvested by exposure to 0.05% trypsin/EDTA and counted using a hemocytometer.

[2] = test system: 9L rat gliosarcoma cells; assay: 9L cell proliferation assay (cell counting); assay type: cell-based
Experimental: Culture Conditions: 9L rat gliosarcoma cells were purchased from ATC (Gaithersburg, Md.) and were maintained in DMEM (Invitrogen) supplemented with 10% heat-inactivated fetal bovine serum (FBS), penicillin (10 IU/ml), streptomycin (10 μg/ml) and 10% non-essential amino acids (all purchased from Invitrogen). Cells were maintained at 37° C. in a humidified incubator containing 5% CO2. They were grown in medium containing 10% FBS, which was then replaced with serum-free medium (give type and source) where 9L cells grow exponentially.
Cell Proliferation Assays: Proliferation studies were performed with cultures plated at a density that ensured exponential growth for at least 5 days. Growth medium were generally replaced by serum free medium 24 hr after plating. […] The concentration of the ethanol added to the media never exceeded 0.1%. Cells were harvested by exposure to a solution of 0.05% Trypsin/EDTA and counted using a hemocytometer.

[3] = test system: primary human keratinocytes; assay: Proliferation of primary human keratinocytes (comparison with U251); assay type: cell-based; details: 10 μM HET0016, 48 hrs; DDMS concentration not given
Experimental: (§2) Mean values±SD from three separate experiments, each performed in triplicate, are presented. *** indicates p<0.001 from the respective control values.
as §1

[4] = test system: rat cornea; assay: Rat cornea pocket angiogenesis assay (growth factor pellets); assay type: in vivo
Experimental: (i) Preparation of sustained-release polymer: Sustained-release polymer pellets were prepared by making a 1:1 mix of a 12% solution in ethanol of the polymer (Hydron polyhydroxyethylmethacrylate), with saline containing the growth factors. The growth factors bFGF, VEGF, and EGF were dissolved at a concentration of 125 ng/μl. […] 2 μl of these solutions were added to each pellet. Thus, a pellet containing 250 ng of a single growth factor was implanted at random in the right or left eye. The other eye was implanted with a pellet containing the same dose of growth factor+HET0016. In some rats the pellet contained VEGF alone and VEGF+DDMS. 20 μg of the stable 20-HETE agonist analog WIT003 was implanted in one eye to determine whether it induces angiogenesis. […] 9 μl of the 1:1 Hydron/treatment mixture was placed on the ends of 1.5-cm rods. Each pellet contained 250 ng of its respective growth factor. For bFGF we used sucralfate to stabilize and allow sustained release of this growth factor (Volkin D B et al., Biochim Biophys Acta 1993, 1203:18-26). After drying the pellets for 1 hour, they were ready to be implanted into the cornea of rats.
(ii) Pellet implantation: The rats were anesthetized IM with ketamine (80 mg/kg) and xylazine (10 mg/kg). The eyes were topically anesthetized with 0.5% proparacaine (Ophthetic, Alcon, Tex.) and the globes proptosed with a jeweler's forceps. Using an operating microscope, a central intrastromal linear keratotomy, approximately 1.5 mm in length, was performed with a surgical blade (Bard-Parker #11; Becton Dickinson, Franklin Lake, N.Y.) parallel to the insertion of the lateral rectus muscle. A curved iris spatula (No. 10093-13, Fine Science Tools, Belmont, Calif.) approximately 1.5 mm wide and 5 mm long was inserted under the lip of the incision and gently pushed through the stroma toward the temporal limbus of the eye. The distance between the limbus and the base of the pocket was kept at 1.0±0.1 mm. The pellet was advanced to the temporal end of the pocket. Antibiotic ointment (erythromycin) was applied to the anterior surface of the eye.
(iv) Quantitation of corneal neovascularization: Seven days after pellet implantation, the rats were deeply anesthetized as previously described with ketamine and xylazine. The left ventricle was cannulated and the animal was perfused with 20-25 ml saline through the left ventricle followed by 20-25 ml India ink (waterproof drawing ink, Sanford, Bellwood, Ill.). The eyes were marked for orientation, enucleated and placed in 4% formalin for 24 hours. The cornea was dissected free from the surrounding globe and underlying iris, bisected, and loosely mounted between two glass slides, thus gently flattening the cornea. These flat mounts were examined microscopically using a Nikon Diaphot Epi-fluor 2 microscope attached to a CCD video camera and the images were digitized and saved using a computer.
Neovascularization was determined by comparing total vessel length in the control and experimental eyes. Vessel length was determined by tracing each vessel from the limbus to the pellet. Total length is the sum of these values in pixels and was determined using conventional image analysis software (Sigma Scan Pro, SPSS, Chicago, Ill.)

[5] = test system: CYP4A; details: read-out: IC50 for inhibition of CYP4A enzyme activity; cited from earlier work
[6] = test system: HUVECs; assay: Proliferation of normal HUVECs (comparison with U251); assay type: cell-based, human; details: 10 μM HET0016, 48 hrs; DDMS concentration not given
Experimental: as §2, §1

[7] = test system: CYP4A11 mRNA; assay: RT-PCR of CYP4A11 mRNA in U251 cultures; assay type: cell-based, human; details: 100 μM DDMS
Experimental: EtOH-treated cultures were used as solvent controls. Briefly, total RNA was isolated with Trizol reagent (Invitrogen) and 1-2 μg RNA was used to synthesize cDNA using a First Strand synthesis kit (Invitrogen). We used PCR primers that specifically recognize CYP4A11, and β-actin-specific primers. A 1 μCi ^32P per sample was added to Platinum PCR Supermix (Invitrogen). The PCR conditions used to amplify CYP4A 11 and β-actin consisted of a precycle of 95° C for 3 min followed by 35 cycles of 95° C for 45 s, 52° C. for 30 s, and 72° C. for 2 min, with final extension at 72° C. for 10 min. The primers used were: β-actin forward primer, 5′-TGCGTGACATTAAGGAGAAG-3′ (SEQ ID NO:3); β-actin reverse primer, 5′-GCT CGT AGC TCT TCT CCA-3′ (SEQ ID NO:4); CYP4A11 forward primer, 5′-CCACCTGGACCAGAGGCCCTACACCACC-3′ (SEQ ID NO:5); CYP4A11 reverse primer, 5′-AGGATATGGGCAGACAGGAA-3′(SEQ ID NO:6). PCR products were subjected to electrophoresis in 5% bis-acrylamide gels and visualized by autoradiography.

SMILES: CS(=O)(=O)NC(=O)CCCCCCCCCC=C(Br)Br [DDMS, dibromododecenyl methylsulfonimide]
- blockade of U251 cell proliferation ([1]; DDMS, concentration not given): about 60%
- concentration dependence of inhibition of U251 proliferation ([1]; various concentrations): inhibited the proliferation of U251 cancer cells in a dose-dependent manner; also recorded: inhibited the proliferation of U251 cells in a concentration dependent manner
- effect on 9L cell number ([2]; DDMS 10 μM): significant reduction in cell number
- inhibition of 9L cell proliferation ([2]; DDMS, concentration not given): 60%
- effect on basal growth or proliferation of primary human keratinocytes [3]: Neither DDMS or HET0016 had any effect
- angiogenic response to inhibitor alone ([4]; 20 μg HET0016 or 10 μg DDMS per pellet, no growth factor): Neither HET0016 nor DDMS alone elicited a response different from saline
- effect on the angiogenic response to VEGF ([4]; VEGF 250 ng/pellet + 10 μg DDMS): as effective as 20 μg HET0016; also recorded: completely inhibits the angiogenic response; also recorded: abolished; also recorded: inhibit angiogenic responses to VEGF
- pIC50 [5]: ~5.00
- effect on basal growth or proliferation of normal HUVECs [6]: Neither DDMS or HET0016 had any effect
- CYP4A11 transcript levels [7]: not affected
